Our source for the Kd, Activity and viability values is ChEMBL document CHEMBL5608184, “Discovery and mechanistic insights into thieno[3,2-d]pyrimidine and heterocyclic fused pyrimidines inhibitors targeting tubulin for cancer therapy” (Eur J Med Chem, 2024).

SMILES strings stand for the structures.

In one test the target is Tubulin. Kind of test: Binding affinity to CM5-chip immobilized tubulin (unknown origin) assessed as dissociation constant by SPR analysis. Format: protein-complex assay, Homo sapiens. In general terms: In SPR one partner is held on a chip, and binding of the other changes the refractive index at the surface.
Test [1] concerns SK-OV-3. The experiment in a line: Induction of cell cycle arrest at G2/M phase in human SK-OV-3 cells at 0.625 nM incubated for 24 hrs by PI staining based flow cytometry (reference value: 29.73 %). It counts as functional. In general terms: Flow cytometry measures light scatter and fluorescence of single cells or particles in a stream.
In test [2] the test system is SK-OV-3. Kind of test: Induction of cell cycle arrest at G2/M phase in human SK-OV-3 cells at 2.5 nM incubated for 24 hrs by PI staining based flow cytometry (reference value: 29.73 %). It counts as functional.
The subject of test [3] is SK-OV-3. The experiment in a line: Induction of apoptosis in human SK-OV-3 cells assessed as viable cells at 0.625 nM incubated for 48 hrs by Annexin V-APC-A/7-AAD-A staining based flow cytometry (reference value: 97.17 %). The conditions noted are these: read-out: Activity. It counts as functional.
Test [4] deals with SK-OV-3. The experiment in a line: Induction of apoptosis in human SK-OV-3 cells assessed as early apoptotic cells at 0.625 nM incubated for 48 hrs by Annexin V-APC-A/7-AAD-A staining based flow cytometry (reference value: 1.12 %). Format: functional.
Test [5] has as its system SK-OV-3. The experiment in a line: Induction of apoptosis in human SK-OV-3 cells assessed as late apoptotic cells at 0.625 nM incubated for 48 hrs by Annexin V-APC-A/7-AAD-A staining based flow cytometry (reference value: 1.22 %). It counts as functional.
Test [6] has as its system SK-OV-3. Kind of test: Induction of apoptosis in human SK-OV-3 cells assessed as necrotic cells at 0.625 nM incubated for 48 hrs by Annexin V-APC-A/7-AAD-A staining based flow cytometry (reference value: 0.48 %). Format: functional.
In test [7] the test system is SK-OV-3. Kind of test: Induction of apoptosis in human SK-OV-3 cells assessed as late apoptotic cells at 1.25 nM incubated for 48 hrs by Annexin V-APC-A/7-AAD-A staining based flow cytometry (reference value: 1.22 %). Format: functional.
The subject of test [8] is SK-OV-3. The experiment in a line: Induction of apoptosis in human SK-OV-3 cells assessed as necrotic cells at 1.25 nM incubated for 48 hrs by Annexin V-APC-A/7-AAD-A staining based flow cytometry (reference value: 0.48 %). Format: functional.
Test [9] concerns SK-OV-3. The experiment in a line: Induction of apoptosis in human SK-OV-3 cells assessed as early apoptotic cells at 2.5 nM incubated for 48 hrs by Annexin V-APC-A/7-AAD-A staining based flow cytometry (reference value: 1.12 %). Format: functional.
In test [10] the test system is SK-OV-3. The experiment in a line: Induction of apoptosis in human SK-OV-3 cells assessed as late apoptotic cells at 2.5 nM incubated for 48 hrs by Annexin V-APC-A/7-AAD-A staining based flow cytometry (reference value: 1.22 %). Format: functional.
The test system of test [11] is SK-OV-3. Kind of test: Induction of apoptosis in human SK-OV-3 cells assessed as viable cells at 5 nM incubated for 48 hrs by Annexin V-APC-A/7-AAD-A staining based flow cytometry (reference value: 97.17 %). It counts as functional. The note with it: read-out: Activity.
Test [12] concerns SK-OV-3. The experiment in a line: Induction of apoptosis in human SK-OV-3 cells assessed as early apoptotic cells at 5 nM incubated for 48 hrs by Annexin V-APC-A/7-AAD-A staining based flow cytometry (reference value: 1.12 %). Format: functional.
The subject of test [13] is SK-OV-3. Kind of test: Induction of apoptosis in human SK-OV-3 cells assessed as late apoptotic cells at 5 nM incubated for 48 hrs by Annexin V-APC-A/7-AAD-A staining based flow cytometry (reference value: 1.22 %). It counts as functional.
Test [14] concerns SK-OV-3. Kind of test: Induction of apoptosis in human SK-OV-3 cells assessed as necrotic cells at 5 nM incubated for 48 hrs by Annexin V-APC-A/7-AAD-A staining based flow cytometry (reference value: 0.48 %). Format: functional.
In test [15] the test system is SK-OV-3. Kind of test: Inhibition of cell migration in human SK-OV-3 cells assessed as relative wound density at 0.625 nM incubated for 24 hrs by wound healing assay (reference value: 74.53 %). Format: functional. The arrangement: scale not given: the % may be the effect or the level left.
Test [16] has as its system SK-OV-3. The experiment in a line: Inhibition of cell migration in human SK-OV-3 cells assessed as relative wound density at 1.25 nM incubated for 24 hrs by wound healing assay (reference value: 74.53 %). It counts as functional. The arrangement: scale not given: the % may be the effect or the level left.
The subject of test [17] is SK-OV-3. The experiment in a line: Inhibition of cell migration in human SK-OV-3 cells assessed as relative wound density at 5 nM incubated for 24 hrs by wound healing assay (reference value: 74.53 %). It counts as functional. The arrangement: scale not given: the % may be the effect or the level left.
Test [18] concerns SK-OV-3. The experiment in a line: Induction of cell cycle arrest at G2/M phase in human SK-OV-3 cells at 1.25 nM incubated for 24 hrs by PI staining based flow cytometry (reference value: 30.13 %). Format: functional.
Test [19] has as its system SK-OV-3. Kind of test: Induction of cell cycle arrest at G2/M phase in human SK-OV-3 cells at 2.5 nM incubated for 24 hrs by PI staining based flow cytometry (reference value: 30.13 %). It counts as functional.
The test system of test [20] is SK-OV-3. The experiment in a line: Induction of apoptosis in human SK-OV-3 cells assessed as viable cells at 0.625 nM incubated for 48 hrs by Annexin V-APC-A/7-AAD-A staining based flow cytometry (reference value: 97.50 %). Format: functional. The conditions noted are these: read-out: Activity.
Test [21] concerns SK-OV-3. Kind of test: Induction of apoptosis in human SK-OV-3 cells assessed as early apoptotic cells at 0.625 nM incubated for 48 hrs by Annexin V-APC-A/7-AAD-A staining based flow cytometry (reference value: 1.10 %). It counts as functional.
The subject of test [22] is SK-OV-3. Kind of test: Induction of apoptosis in human SK-OV-3 cells assessed as necrotic cells at 0.625 nM incubated for 48 hrs by Annexin V-APC-A/7-AAD-A staining based flow cytometry (reference value: 0.21 %). It counts as functional.
Test [23] relates to SK-OV-3. The experiment in a line: Induction of apoptosis in human SK-OV-3 cells assessed as viable cells at 1.25 nM incubated for 48 hrs by Annexin V-APC-A/7-AAD-A staining based flow cytometry (reference value: 97.50 %). Format: functional. The conditions noted are these: read-out: Activity.
For test [24], the system named is SK-OV-3. The experiment in a line: Induction of apoptosis in human SK-OV-3 cells assessed as early apoptotic cells at 1.25 nM incubated for 48 hrs by Annexin V-APC-A/7-AAD-A staining based flow cytometry (reference value: 1.10 %). It counts as functional.
Test [25] relates to SK-OV-3. Kind of test: Induction of apoptosis in human SK-OV-3 cells assessed as necrotic cells at 1.25 nM incubated for 48 hrs by Annexin V-APC-A/7-AAD-A staining based flow cytometry (reference value: 0.21 %). It counts as functional.
The test system of test [26] is SK-OV-3. Kind of test: Induction of apoptosis in human SK-OV-3 cells assessed as early apoptotic cells at 2.5 nM incubated for 48 hrs by Annexin V-APC-A/7-AAD-A staining based flow cytometry (reference value: 1.10 %). Format: functional.
The test system of test [27] is SK-OV-3. Kind of test: Induction of apoptosis in human SK-OV-3 cells assessed as viable cells at 5 nM incubated for 48 hrs by Annexin V-APC-A/7-AAD-A staining based flow cytometry (reference value: 97.50 %). The note with it: read-out: Activity. Format: functional.
The subject of test [28] is SK-OV-3. The experiment in a line: Induction of apoptosis in human SK-OV-3 cells assessed as early apoptotic cells at 5 nM incubated for 48 hrs by Annexin V-APC-A/7-AAD-A staining based flow cytometry (reference value: 1.10 %). Format: functional.
Test [29] deals with SK-OV-3. The experiment in a line: Inhibition of cell migration in human SK-OV-3 cells assessed as relative wound density at 1.25 nM incubated for 24 hrs by wound healing assay (reference value: 61.61 %). The arrangement: scale not given: the % may be the effect or the level left. It counts as functional.
Test [30] concerns SK-OV-3. The experiment in a line: Inhibition of cell migration in human SK-OV-3 cells assessed as relative wound density at 2.5 nM incubated for 24 hrs by wound healing assay (reference value: 61.61 %). It counts as functional. On the set-up: scale not given: the % may be the effect or the level left.
The subject of test [31] is SK-OV-3. The experiment in a line: Inhibition of cell migration in human SK-OV-3 cells assessed as relative wound density at 5 nM incubated for 24 hrs by wound healing assay (reference value: 61.61 %). It counts as functional. The arrangement: scale not given: the % may be the effect or the level left.

Broadly, the Kd is the concentration at which binding is half-saturated.

Turning to `COc1ccc2c(c1)NC(=O)CN2c1nc(Cl)nc2ccsc12`, the Kd on Tubulin is 24.4 µM. The Activity was found to be 41.72% in the test on SK-OV-3 [1]; 88.2% in the test with SK-OV-3 [2]; 15.61% with SK-OV-3 [4]; 2.48% with SK-OV-3 [5]; 0.91% in the test on SK-OV-3 [6]; 4.64% in the test on SK-OV-3 [7]. Further, the Activity in the test with SK-OV-3 [8] came out at 2.6%; with SK-OV-3 [9] it was 39.07%; in the test on SK-OV-3 [10], 4.71%; in the test on SK-OV-3 [12], 31.24%; in the test with SK-OV-3 [13] it was 4.63%; in the test with SK-OV-3 [14], 2.06%. Moreover, the figures for the Activity in the test on SK-OV-3 [15], in the test on SK-OV-3 [16] and in the test on SK-OV-3 [17] were 67.94%, 33.15% and 7.98%, respectively. In addition, the viability at 0.000625 µM with SK-OV-3 [3] is 81%. The viability at 0.005 µM with SK-OV-3 [11] amounted to 62.1%.
Regarding `COc1ccc(N(C)c2nc(Cl)nc3ccn(C)c23)cc1`, the Activity was found to be 34.62% in the test on SK-OV-3 [18]; 52.19% in the test with SK-OV-3 [19]; 1.53% in the test with SK-OV-3 [21]; 0.33% in the test on SK-OV-3 [22]; 2.83% in the test with SK-OV-3 [24]; 0.56% with SK-OV-3 [25]. The Activity in the test with SK-OV-3 [26] is 20.62%; with SK-OV-3 [28], 39.84%; in the test with SK-OV-3 [29], 54.94%; in the test on SK-OV-3 [30] it was 6.33%; in the test on SK-OV-3 [31], 12.11%. In addition, the viability at 0.000625 µM in the test on SK-OV-3 [20] worked out at 96.2%. Further, in the test on SK-OV-3 [23], the viability at 0.00125 µM was 94.1%. Besides, in the test with SK-OV-3 [27], the viability at 0.005 µM was determined as 54%.
